From patent US20230111310A1, “CARBOXYLIC ACID DERIVATIVE-SUBSTITUTED IMINO ARYL COMPOUND, PREPARATION METHOD THEREFOR, HERBICIDAL COMPOSITION AND USE THEREOF” (Qingdao Kingagroot Chemical Compound Co., Ltd., priority 2020, published 2023)

Key:
Experiment in all cases: Weeding effect in post-emergence stage
Assay type in all cases: in vivo
Abutilon theophrasti = conditions: for Weeding effect in post-emergence stage, Abutilon theophrasti (level): fresh weight control rate level; for Weeding effect in post-emergence stage, Abutilon theophrasti: level of fresh weight growth control rate
Procedure, shortened: (§1)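 Seeds are sown in soil-filled pots under 0.5-2 cm soil and grown 2 weeks in greenhouse. Plants at 2-3 leaves are sprayed with compound (acetone, Tween 80, 1.5 liter/ha methyl oleate EC, water) at 7.5 to 500 g/ha. Damage is rated 3 weeks later, averaging three repeats.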

Alopecurus japonicus = conditions: for Weeding effect in post-emergence stage, Alopecurus japonicus (level): fresh weight control rate level; for Weeding effect in post-emergence stage, Alopecurus japonicus: level of fresh weight growth control rate
Procedure, shortened: as §1

Digitaria sanguinalis = conditions: for Weeding effect in post-emergence stage, Digitaria sanguinalis (level): fresh weight control rate level; for Weeding effect in post-emergence stage, Digitaria sanguinalis: level of fresh weight growth control rate
Procedure, shortened: as §1

Eleusine indica = conditions: for Weeding effect in post-emergence stage, Eleusine indica (level): fresh weight control rate level; for Weeding effect in post-emergence stage, Eleusine indica: level of fresh weight growth control rate
Procedure, shortened: as §1

Setaria viridis = conditions: for Weeding effect in post-emergence stage, Setaria viridis (level): fresh weight control rate level; for Weeding effect in post-emergence stage, Setaria viridis: level of fresh weight growth control rate
Procedure, shortened: as §1

Echinochloa crusgalli = conditions: for Weeding effect in post-emergence stage, Echinochloa crusgalli (level): fresh weight control rate level; for Weeding effect in post-emergence stage, Echinochloa crusgalli: level of fresh weight growth control rate
Procedure, shortened: as §1

| Structure (SMILES) | Weeding effect in post-emergence stage, Abutilon theophrasti (level) (Abutilon theophrasti; Dose 15 g/ha) | Weeding effect in post-emergence stage, Alopecurus japonicus (level) (Alopecurus japonicus; Dose 15 g/ha) | Weeding effect in post-emergence stage, Digitaria sanguinalis (level) (Digitaria sanguinalis; Dose 15 g/ha) | Weeding effect in post-emergence stage, Eleusine indica (level) (Eleusine indica; Dose 15 g/ha) | Weeding effect in post-emergence stage, Setaria viridis (level) (Setaria viridis; Dose 15 g/ha) | Weeding effect in post-emergence stage, Echinochloa crusgalli (level) (Echinochloa crusgalli; Dose 15 g/ha) | Weeding effect in post-emergence stage, Abutilon theophrasti (Abutilon theophrasti; Dose 15 g/ha) | Weeding effect in post-emergence stage, Alopecurus japonicus (Alopecurus japonicus; Dose 15 g/ha) | Weeding effect in post-emergence stage, Digitaria sanguinalis (Digitaria sanguinalis; Dose 15 g/ha) | Weeding effect in post-emergence stage, Eleusine indica (Eleusine indica; Dose 15 g/ha) | Weeding effect in post-emergence stage, Setaria viridis (Setaria viridis; Dose 15 g/ha) | Weeding effect in post-emergence stage, Echinochloa crusgalli (Echinochloa crusgalli; Dose 15 g/ha) | also measured |
| --- | --- | --- | --- | --- | --- | --- | --- | --- | --- | --- | --- | --- | --- |
| C[C@@H](O/N=C/c1cc(-n2c(=O)cc(C(F)(F)F)n(C)c2=O)c(F)cc1Cl)C(N)=O [499(R)] | 5 (Level 5: growth control rate is above 85%) | 5 (Level 5: growth control rate is above 85%) | 5 (Level 5: growth control rate is above 85%) | 5 (Level 5: growth control rate is above 85%) | 5 (Level 5: growth control rate is above 85%) | 5 (Level 5: growth control rate is above 85%) |  |  |  |  |  |  |  |
| C/C(Cl)=C/COC(=O)[C@@H](C)O/N=C/c1cc(-n2c(=O)cc(C(F)(F)F)n(C)c2=O)c(F)cc1Cl [500(R)] | 5 (Level 5: growth control rate is above 85%) | 5 (Level 5: growth control rate is above 85%) | 5 (Level 5: growth control rate is above 85%) | 5 (Level 5: growth control rate is above 85%) | 5 (Level 5: growth control rate is above 85%) | 5 (Level 5: growth control rate is above 85%) |  |  |  |  |  |  |  |
| C=C(Cl)COC(=O)[C@@H](C)O/N=C/c1cc(-n2c(=O)cc(C(F)(F)F)n(C)c2=O)c(F)cc1Cl [501(R)] | 5 (Level 5: growth control rate is above 85%) | 5 (Level 5: growth control rate is above 85%) | 5 (Level 5: growth control rate is above 85%) | 5 (Level 5: growth control rate is above 85%) | 5 (Level 5: growth control rate is above 85%) | 5 (Level 5: growth control rate is above 85%) |  |  |  |  |  |  |  |
| CCN(CC)C(=O)[C@@H](C)O/N=C/c1cc(-n2c(=O)cc(C(F)(F)F)n(C)c2=O)c(F)cc1Cl [502(R)] | 5 (Level 5: growth control rate is above 85%) | 5 (Level 5: growth control rate is above 85%) | 5 (Level 5: growth control rate is above 85%) | 5 (Level 5: growth control rate is above 85%) | 5 (Level 5: growth control rate is above 85%) | 5 (Level 5: growth control rate is above 85%) |  |  |  |  |  |  |  |
| C[C@@H](O/N=C/c1cc(-n2c(=O)cc(C(F)(F)F)n(C)c2=O)c(F)cc1Cl)C(=O)NS(=O)(=O)CCl [503(R)] | 5 (Level 5: growth control rate is above 85%) | 5 (Level 5: growth control rate is above 85%) | 5 (Level 5: growth control rate is above 85%) | 5 (Level 5: growth control rate is above 85%) | 5 (Level 5: growth control rate is above 85%) | 5 (Level 5: growth control rate is above 85%) |  |  |  |  |  |  |  |
| COC(=O)C(C)ON=Cc1nc(-n2c(=O)cc(C(F)(F)F)n(C)c2=O)c(F)cc1Cl [504(R)] | 5 (Level 5: growth control rate is above 85%) | 5 (Level 5: growth control rate is above 85%) | 5 (Level 5: growth control rate is above 85%) | 5 (Level 5: growth control rate is above 85%) | 5 (Level 5: growth control rate is above 85%) | 5 (Level 5: growth control rate is above 85%) |  |  |  |  |  |  |  |
| COC(=O)[C@@H](C)S/N=C/c1cc(-n2c(=O)cc(C(F)(F)F)n(C)c2=O)c(F)cc1Cl [730(R)] | 5 (Level 5: growth control rate is above 85%) | 5 (Level 5: growth control rate is above 85%) | 5 (Level 5: growth control rate is above 85%) | 5 (Level 5: growth control rate is above 85%) | 5 (Level 5: growth control rate is above 85%) | 5 (Level 5: growth control rate is above 85%) |  |  |  |  |  |  |  |
| COC(=O)[C@@H](C)N/N=C/c1cc(-n2c(=O)cc(C(F)(F)F)n(C)c2=O)c(F)cc1Cl [919(R)] |  |  |  |  |  |  |  |  |  |  |  |  | Weeding effect in post-emergence stage, Abutilon theophrasti (level) (Abutilon theophrasti; Dose 30 g/ha): 5 (Level 5: growth control rate is above 85%); Weeding effect in post-emergence stage, Alopecurus japonicus (level) (Alopecurus japonicus; Dose 30 g/ha): 5 (Level 5: growth control rate is above 85%); Weeding effect in post-emergence stage, Digitaria sanguinalis (level) (Digitaria sanguinalis; Dose 30 g/ha): 5 (Level 5: growth control rate is above 85%); Weeding effect in post-emergence stage, Eleusine indica (level) (Eleusine indica; Dose 30 g/ha): 5 (Level 5: growth control rate is above 85%); Weeding effect in post-emergence stage, Setaria viridis (level) (Setaria viridis; Dose 30 g/ha): 5 (Level 5: growth control rate is above 85%); Weeding effect in post-emergence stage, Echinochloa crusgalli (level) (Echinochloa crusgalli; Dose 30 g/ha): 5 (Level 5: growth control rate is above 85%) |
| CC(C)=NOC(=O)C(C)O/N=C/c1cc(-n2c(=O)n(C)c(=S)n(C)c2=O)c(F)cc1Cl (stereo not drawn) [Compound 20] |  |  |  |  |  |  | 5 (Level 5: growth control rate is above 85%) | 5 (Level 5: growth control rate is above 85%) | 5 (Level 5: growth control rate is above 85%) | 5 (Level 5: growth control rate is above 85%) | 5 (Level 5: growth control rate is above 85%) | 5 (Level 5: growth control rate is above 85%) |  |
| CC(O/N=C/c1cc(-n2c(=O)n(C)c(=S)n(C)c2=O)c(F)cc1Cl)C(=O)OCC1CCCO1 (stereo not drawn) [Compound 24] |  |  |  |  |  |  | 5 (Level 5: growth control rate is above 85%) | 5 (Level 5: growth control rate is above 85%) | 5 (Level 5: growth control rate is above 85%) | 5 (Level 5: growth control rate is above 85%) | 5 (Level 5: growth control rate is above 85%) | 5 (Level 5: growth control rate is above 85%) |  |
| CC(O/N=C/c1cc(-n2c(=O)n(C)c(=S)n(C)c2=O)c(F)cc1Cl)C(=O)OCc1ccco1 (stereo not drawn) [Compound 26] |  |  |  |  |  |  | 5 (Level 5: growth control rate is above 85%) | 5 (Level 5: growth control rate is above 85%) | 5 (Level 5: growth control rate is above 85%) | 5 (Level 5: growth control rate is above 85%) | 5 (Level 5: growth control rate is above 85%) | 5 (Level 5: growth control rate is above 85%) |  |
| CC(O/N=C/c1cc(-n2c(=O)n(C)c(=S)n(C)c2=O)c(F)cc1Cl)C(=O)OCc1ccccc1 (stereo not drawn) [Compound 42] |  |  |  |  |  |  | 5 (Level 5: growth control rate is above 85%) | 4 (Level 4: growth control rate is greater than or equal to 60% and less than 85%) | 5 (Level 5: growth control rate is above 85%) | 5 (Level 5: growth control rate is above 85%) | 5 (Level 5: growth control rate is above 85%) | 5 (Level 5: growth control rate is above 85%) |  |
| CC(O/N=C/c1cc(-n2c(=O)n(C)c(=S)n(C)c2=O)c(F)cc1Cl)C(=O)OCc1ccncc1 (stereo not drawn) [Compound 60] |  |  |  |  |  |  | 5 (Level 5: growth control rate is above 85%) | 4 (Level 4: growth control rate is greater than or equal to 60% and less than 85%) | 5 (Level 5: growth control rate is above 85%) | 5 (Level 5: growth control rate is above 85%) | 5 (Level 5: growth control rate is above 85%) | 5 (Level 5: growth control rate is above 85%) |  |
| CCC(O/N=C/c1cc(-n2c(=O)n(C)c(=S)n(C)c2=O)c(F)cc1Cl)C(=O)OC (stereo not drawn) [Compound 72] |  |  |  |  |  |  | 5 (Level 5: growth control rate is above 85%) | 4 (Level 4: growth control rate is greater than or equal to 60% and less than 85%) | 5 (Level 5: growth control rate is above 85%) | 5 (Level 5: growth control rate is above 85%) | 5 (Level 5: growth control rate is above 85%) | 5 (Level 5: growth control rate is above 85%) |  |
| CCOC(=O)C(O/N=C/c1cc(-n2c(=O)n(C)c(=S)n(C)c2=O)c(F)cc1Cl)C1CC1 (stereo not drawn) [Compound 76] |  |  |  |  |  |  | 5 (Level 5: growth control rate is above 85%) | 5 (Level 5: growth control rate is above 85%) | 5 (Level 5: growth control rate is above 85%) | 5 (Level 5: growth control rate is above 85%) | 5 (Level 5: growth control rate is above 85%) | 5 (Level 5: growth control rate is above 85%) |  |
